Reference: US12213984B2, “Immunoregulatory agent” (KYUSHU UNIVERSITY, NATIONAL UNIVERSITY CORPORATION, priority 2015, dated 2025)

Assays:
[1] = biological target: T1, DOCK2DHR-2 (lobe B and lobe C of the DHR-2 domain of DOCK2) (Homo sapiens, UniProt Q92608); test: in-vitro GEF assay, Rac activation by DOCK2 DHR-2 domain with various steroid compounds (Experimental Example 2); assay type: biochemical; conditions: IC50 against the Rac activation by DOCK2DHR-2, Experimental Example 2, Table 1
T1 construct: polypeptide fragments corresponding to a DHR-2 domain including the lobe B and the lobe C of DOCK2; Histidine-SUMO (N); made in house; host or cells: E. coli Arctic express DE3 (pET28a); Rac in E. coli BL21 DE3 (pGEX-6P-1)
T1 sequence (Q92608 1196-1622): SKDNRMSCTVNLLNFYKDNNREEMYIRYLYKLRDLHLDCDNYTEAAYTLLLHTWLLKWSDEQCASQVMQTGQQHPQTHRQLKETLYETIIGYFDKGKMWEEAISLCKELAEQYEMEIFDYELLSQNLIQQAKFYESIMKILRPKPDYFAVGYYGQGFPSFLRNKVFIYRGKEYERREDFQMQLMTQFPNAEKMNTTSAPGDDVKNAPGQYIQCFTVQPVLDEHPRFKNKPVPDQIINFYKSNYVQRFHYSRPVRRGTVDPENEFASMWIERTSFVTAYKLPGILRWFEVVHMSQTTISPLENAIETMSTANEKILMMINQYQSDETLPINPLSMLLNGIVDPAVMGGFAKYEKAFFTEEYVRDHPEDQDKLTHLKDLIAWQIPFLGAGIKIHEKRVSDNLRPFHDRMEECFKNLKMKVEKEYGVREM
Procedure: An examination was performed using various steroid compounds to test their effects on the Rac activation induced by proteins composed of the lobe B and the lobe C of the DHR-2 domain of DOCK2.
As the steroid compounds, cholesterol 3-sulfate (hereinafter, referred to as “C3S” in some cases), cholesterol, cholesterol 3-acetate (hereinafter, referred to as “C3A” in some cases), pregnenolone 3-sulfate (hereinafter, referred to as “PREG3S” in some cases), dehydroepiandrosterone (hereinafter, referred to as “DHEA” in some cases), dehydroepiandrosterone 3-sulfate (hereinafter, referred to as “DHEA3S” in some cases), estrone 3-sulfate (hereinafter, referred to as “Estrone3S” in some cases), estriol 3-sulfate (hereinafter, referred to as “Estriol3S” in some cases), and estradiol 3-sulfate (hereinafter, referred to as “Estradiol3S” in some cases) were used.
More specifically, a DOCK2-DHR-2 domain protein prepared by the same method as described above was incubated for 20 minutes at room temperature in the presence of various steroid compounds at a predetermined concentration dissolved in DMSO or in the presence of DMSO alone (control) under the shielded condition from light, thereby preparing a pretreated substance of GEF. The concentration of DMSO was adjusted such that it became 3% (1% in the final reaction solution) in all samples. Then, by in-vitro GEF assay in which Rac and Bodipy-FL-GTP prepared by the same method as described above were used, Rac activation by the DHR-2 domain was measured.

[2] = tested on: inflammatory cells infiltrating into the anterior chamber of eye; test: UV-induced photokeratitis in Sult2B1b gene knockout mice, eye drops; assay type: in vivo, mouse; conditions: eye drops before and after UV irradiation
Excerpt: As a result of analyzing UV-induced photokeratitis in Sult2B1b gene heterozygous mice (+/−) and Sult2B1b gene knockout mice (−/−), atrophy of the corneal epithelial layer was comparably observed in both mice. Therefore, the eyeball section of each of the mice was subjected to hematoxylin-eosin (HE) staining and observed using an optical microscope. Thereafter, cholesterol 3-sulfate was applied to the eyes of the Sult2B1b gene knockout mouse (−/−) before and after UV irradiation, and the total number of inflammatory cells infiltrating the anterior chamber of eye was counted. As a control, mouse for whom only a vehicle was applied to its eyes was used.

[3] = tested on: neutrophils derived from the mouse bone marrow; test: neutrophil migration assay 2 (EZ-TAXIScan, compound added to the fMLP source); assay type: cell-based; conditions: 150 μM added to well with 3 μM fMLP, no pretreatment
Procedure: An examination was performed about the influence of cholesterol 3-sulfate on the migration speed of neutrophils when the cells and the chemical migration factor (fMLP) are added to the same well without pretreating the cells. […] Phase-contrast micrographs were obtained for 40 minutes at an interval of 30 seconds and analyzed by the same method as described above. (a) to (c) of FIG. 12 are graphs and photographs showing the experiment results.

CC(C)CCC[C@@H](C)[C@H]1CC[C@H]2[C@@H]3CC=C4C[C@@H](OS(=O)(=O)O)CC[C@]4(C)[C@H]3CC[C@]12C [C3S, cholesterol 3-sulfate]
IC50 [1]: 2000 nM | UV irradiation-induced infiltration of inflammatory cells into the anterior chamber of eye [2]: inhibited | migration of neutrophils towards fMLP source containing the compound [3]: rapidly stop
